Results taken from PubChem BioAssay AID1645848.
Converted amounts (≈) assume the structure as drawn.

conditions: buffer; pH 7.4; 6.0 h; 150.0 µM

Structure (SMILES) | solubility kinetic [µg/mL]
Cc1nn2c(c1-c1ccccc1-c1ccccc1)N(CC1CC1)CCC2 | 1.56 (≈ 4.53 µM)
Cc1noc(C)c1-c1ccc2ncnc(N3CCC(C(=O)O)CC3)c2c1 | > 52
Cc1noc(C)c1C(=O)N1CCC2(CC1)CCN(C(c1ccccc1)c1ccccc1)CC2 | 22 (≈ 49.5 µM)
CCOC(=O)c1csc(NC(=O)c2ccncc2NS(=O)(=O)c2ccc(C)cc2)n1 | 3.2 (≈ 7.16 µM)
COc1ncccc1-c1cc2c(ccn2C(C)C)c(C(=O)NCc2c(C)cc(C)[nH]c2=O)n1 | 10.1 (≈ 22.8 µM)
CN(C)c1cccc(-c2cc(N3CCC(C(N)=O)CC3)ncn2)c1 | > 48
CC1=Nc2cc(C(=O)NC3CCCC3)ccc2Sc2ccc(C)cc21 | 1.05 (≈ 3 µM)
CC(NCc1ccc2c(c1)nc(NC(=O)c1ccc(-c3cn[nH]c3)s1)n2CC(C)(C)O)C(C)(C)C (stereo unspecified) | > 73
CCOc1ccc(C2c3c(oc4ccc(C)cc4c3=O)C(=O)N2CCCN(C)C)cc1 (stereo unspecified) | > 62
CNC(=O)c1nn(C)c2c1C(C)(C)Cc1cnc(Nc3ccc(N4CCN(C)CC4)cc3)nc1-2 | > 68
c1ccc(-c2ccc(CNc3nc(-c4ccccn4)nnc3-c3ccccc3)cc2)cc1 | < 1
COc1cc2c(cc1OCCCN1CCCC1)N=C(N)C21CCC1 | > 49
O=C(Nc1nc(-c2ccccc2)cs1)c1ccncc1NS(=O)(=O)c1ccc(-c2ccccc2)cc1 | < 1
COc1cccc(CNc2ccc(S(=O)(=O)Nc3ccc(-c4ccccc4)cc3)cc2)c1O | < 1
O=C1c2ccccc2C2=Nc3ccccc3SC(c3ccc(Cl)cc3)C12 (stereo unspecified) | < 1
COc1ccc(-c2nc3sc(CCNC(=O)C(C)(C)C)c(C)n3n2)cc1 | > 55
COc1ccc2c(c1)/C(=C/c1cnc[nH]1)C(=O)N2 | > 36
COc1ccc(C(=O)NC2CCN(c3cnn(CC4CC4)c(=O)c3)CC2)c(OC)n1 | > 41
Cc1cc(/C=C2/C(=O)Nc3ccccc32)cc(C)c1O | < 1
C#CCNC(=O)c1nc(-c2cccnc2)c2ccccn12 | > 61
O=C(NC[C@H]1Cn2c(-c3ccc(Cl)cc3)cnc2CO1)C1CCCC1 | > 36
COc1ccc2c(c1)N(C[C@H](C)CN(C)C)c1ccccc1S2 | > 48

Structure (SMILES) | solubility kinetic [µg/mL]
COC(=O)c1ccc2nc(NC3=NC(c4[nH]ncc4Cl)C4=C(CCCC4=O)N3)oc2c1 (stereo unspecified) | 1.62 (≈ 3.69 µM)
CCn1nc(C2CCN(C(=O)CCO)CC2)nc1-c1cnc(N)c(-c2nnc(C(C)(C)C)o2)n1 | > 69
C#CCOc1ccc(-c2nnc(Nc3ccc(NC(C)=O)cc3)c3ccccc23)cc1 | < 1
CCN(CC)C(=O)N1c2ccccc2C=Cc2ccccc21 | 15.9 (≈ 54.5 µM)
C[C@H]1CN(C(=O)c2nn(C)c3ccccc23)C[C@@H]1c1nc(-c2ccncc2)no1 | 34.9 (≈ 89.8 µM)
COc1oc(-c2cccc3ccccc23)nc1C(=O)O | > 40
O=C(COc1ccccc1)NCC(c1cccs1)S(=O)(=O)c1ccc(Cl)cc1 (stereo unspecified) | 3.83 (≈ 8.79 µM)
CN1CCC(N(Cc2cccs2)c2ccccc2)CC1 | > 42
Cc1cccc2oc(NC3=NC(c4[nH]ncc4Cl)C4=C(CCCC4=O)N3)nc12 (stereo unspecified) | < 1
Cc1cnc(CNc2nc(-c3cccc(NS(C)(=O)=O)c3)nc3ccccc23)cn1 | 44 (≈ 105 µM)
CC1Oc2cc3c(-c4c(O)cc(O)c5c(O)c6c(cc45)OC(C)C(C)C6=O)c(O)cc(O)c3c(O)c2C(=O)C1C (stereo unspecified) | 53.5 (≈ 97.8 µM)
Cc1cc(-c2nnc3n2CCCCC3)c(C)n1-c1cccc(C#N)c1 | > 49
O=C1CCCC2=C1C1(CCCC1)N=C(Nc1nc3cc(Cl)ccc3o1)N2 | < 1
CCc1oc2ccccc2c1C(=O)c1cc(I)c(O)c(I)c1 | > 77
O=C1Nc2ccccc2/C1=C\c1ccc(O)c(Cl)c1 | 22.8 (≈ 83.9 µM)
CC[C@H]1/C=C\C=C/C[C@@H](C)[C@H](O)[C@@](C)(O)C(=O)[C@@H](C)[C@H](O)[C@@H](C)C(=O)[C@@H](C)[C@H](O)[C@@H](C)/C=C\C(=O)O[C@@H]2[C@H](C)[C@H](CC1)O[C@]1(CC[C@H](C)[C@H](C[C@@H](C)O)O1)[C@H]2C | < 1
Cc1nnn(C)c1-c1cnc2c3ccc(C(C)(C)O)cc3n([C@H](c3ccccc3)C3CCOCC3)c2c1 | 29.6 (≈ 59.6 µM)
O=C1CCCC2=C1C1(CCS(=O)(=O)C1)N=C(Nc1nc3ccccc3o1)N2 (stereo unspecified) | 1.02 (≈ 2.65 µM)
Cn1nnnc1SCCCNCc1cccc(OCc2ccccc2Cl)c1 | > 60
Cc1cc(-c2nnc3n2CCCCC3)c(C)n1-c1ccc(Cl)c(Cl)c1 | 31.6 (≈ 84.1 µM)
COC(=O)[C@]12CCC(C)(C)C[C@H]1[C@H]1C(=O)C=C3[C@@]4(C)C=C(C#N)C(=O)C(C)(C)[C@@H]4CC[C@@]3(C)[C@]1(C)CC2 | 1.99 (≈ 3.93 µM)
Cc1cccc(N(C)c2nc3ccccc3c3nnc(C)n23)c1 | > 45

Results, then the compound that gave them:

solubility kinetic [µg/mL] | Structure (SMILES)
19.3 (≈ 50.3 µM) | C[C@H]1CN(C(=O)Nc2ccc(F)cc2F)C[C@@H]1c1nc(-c2ccccc2)no1
4.18 (≈ 8.91 µM) | CNC(=O)c1ccccc1Nc1nc(Nc2ccc(N3CCOCC3)cc2OC)ncc1Cl
< 1 | CCOc1ccccc1CNS(=O)(=O)c1ccc(-c2cnc(C3CC3)o2)cc1
< 1 | COc1cccc(CNc2ccc(S(=O)(=O)Nc3cccc4ccccc34)cc2)c1O
12.8 (≈ 24.8 µM) | O=[S+]([O-])(Nc1ccc(C2CCNCC2)cc1)c1ccc(NCc2ccc(Br)cc2O)cc1
< 1 | Fc1ccc(Nc2nc(-c3ccccc3)nc3ccccc23)cc1F
> 45 | NC(=O)C1CCN(c2nc(-c3ccc(F)cc3)cs2)CC1
< 1 | Fc1ccc(F)c(Nc2nc(-c3ccncc3)nc3ccccc23)c1
> 63 | Cc1nn2c(c1-c1ccccc1-c1ccccc1)N(Cc1ccc(C(=O)O)s1)CCC2
3.8 (≈ 7.92 µM) | CCNC(=O)c1coc(COc2ccc3c(c2)C(c2ccc(F)cc2)N(C(=O)CC(C)C)CC3)n1 (stereo unspecified)
27.5 (≈ 82.7 µM) | O=C(c1ccc2ccccc2c1)N1CCN(c2ccc(O)cc2)CC1
< 1 | COc1ccc(Cl)cc1C(=O)Nc1nc(-c2ccccc2)cs1
46.1 (≈ 117 µM) | O=S(=O)(Nc1nccs1)c1ccc(NCc2cccc(Cl)c2O)cc1
53.9 (≈ 116 µM) | COc1cccc(S(=O)(=O)Nc2cnccc2C(=O)Nc2nc(-c3ccccc3)cs2)c1
< 1 | O=C(Nc1ncc(Cc2ccc(C(F)(F)F)cc2)s1)c1ncc(-c2ccccc2)[nH]1
< 1 | Cc1ccnc(NC(=S)N2CCN(c3cc(F)cc(Cl)c3)CC2)c1
22.4 (≈ 54.8 µM) | COc1ccc(-n2nc(C3CCCN(C(=O)c4cccc(OC)c4)C3)[nH]c2=O)cc1 (stereo unspecified)
33.7 (≈ 79.1 µM) | O=C(NCCc1cnc[nH]1)c1ccc(-c2ncc3cnc(-c4cccc(F)c4)cn23)cc1
6.09 (≈ 19.9 µM) | O=C(Nc1nnc(-c2cccs2)o1)c1ccc(Cl)cc1
< 1 | CCCN1C(CC(C)C)=NS(=O)(=O)c2cc(NC(=O)c3cccs3)ccc21
> 63 | Cc1ccc(S(=O)(=O)Nc2cnccc2C(=O)Nc2nc3ccccc3s2)cc1
< 1 | Cc1ccc(S(=O)(=O)Nc2ccc(C(=O)Nc3nc(-c4ccccc4)cs3)c(Cl)c2)cc1
< 1 | CCOc1ccccc1C(=O)Nc1ccccc1C(=O)Nc1cccc(C(F)(F)F)c1
> 65 | O=C(Cc1ccc(Cl)c(Cl)c1)Nc1ccc(S(=O)(=O)Nc2nncs2)cc1
7.57 (≈ 19.8 µM) | O=C(O)c1ccc(-c2c[nH]c3ncc(-c4ccccc4)cc23)cc1C1CCCC1
7.02 (≈ 24.7 µM) | O=C(O)c1cccc(-c2noc(-c3ccccc3F)n2)c1

solubility kinetic [µg/mL] | Structure (SMILES)
< 1 | FC(F)(F)c1cc(-c2ccc(CNc3nc(-c4ccccc4C(F)(F)F)nc4ccsc34)cc2)ccn1
> 71 | CCN1CCN(CCCNC(=O)c2ccc3c(c2)sc2nc(-c4ccc(OC)cc4)cn23)CC1
< 1 | COc1ccc(NS(=O)(=O)c2ccc(C)cc2)cc1C(=O)Nc1nc(-c2ccccc2)cs1
< 1 | COc1ccc(NC(=O)c2[nH]c(C)cc2C)cc1S(=O)(=O)Nc1ccc(Br)cc1
< 1 | COc1cccc(-c2nc3cc(NC(=O)c4ccc(C)c([N+](=O)[O-])c4)ccc3o2)c1
< 1 | Cn1c(=O)cc(C(=O)NC2CCCc3c2[nH]c2c(Cl)cccc32)c2ccccc21 (stereo unspecified)
1.28 (≈ 2.35 µM) | CN(C(=O)CNC(=O)c1ccccc1OCC(=O)Nc1ccc(I)cc1)c1ccccc1
6.45 (≈ 19.2 µM) | Oc1ccc(CNc2ccc(C(F)(F)F)cc2F)c2cccnc12
> 54 | COc1cccc(C(=O)Nc2ccc3c(N4CCOCC4)ncnc3c2)c1
4.87 (≈ 9.92 µM) | O=S(=O)(Nc1nc2ccccc2s1)c1ccc(NCc2ccc(Br)cc2O)cc1
< 1 | CN1C(=O)c2ccccc2[S@](=O)c2ccc(C(=O)NCc3ccc(Br)cc3)cc21
< 1 | Cc1ccc(S(=O)(=O)Nc2cc(C(=O)Nc3nc(-c4ccccc4)cs3)ccc2Cl)cc1
26.2 (≈ 69.2 µM) | O=C(Nc1cccc(C(F)(F)F)c1)C1=CCN(Cc2ccc(F)cc2)CC1
5.59 (≈ 12.7 µM) | Cc1ccccc1C(=O)N1CCc2cc(N3CCC(NC(=O)Cc4ccccc4)C3)ccc21 (stereo unspecified)
43.2 (≈ 95.7 µM) | Nc1ccc(S(=O)(=O)Nc2cnccc2C(=O)Nc2nc(-c3ccccc3)cs2)cc1
< 1 | Cc1ccc(S(=O)(=O)N2CCCc3cc(NS(=O)(=O)c4ccccc4)ccc32)cc1
8.45 (≈ 20.2 µM) | CCOC(=O)CCNc1cc(N2CCc3ccccc3CC2)nc(-c2ccccn2)n1
< 1 | CCOc1ccc(S(=O)(=O)NCc2cccnc2)cc1NC(=O)c1ccccc1F
< 1 | CCCCOc1ccc(CNC(=O)c2cc3n(n2)CCCN(Cc2ccc(C)cc2)C3=O)cc1
0.748 (≈ 1.9 µM) | Cc1cc(C)nc(NC(=S)N2CCN(c3cccc(C(F)(F)F)c3)CC2)c1
14.6 (≈ 32.4 µM) | O=C(Nc1ccc(OC(F)(F)Cl)cc1)c1cnc(N2CC[C@@H](O)C2)c(-c2ccn[nH]2)c1
58.4 (≈ 114 µM) | CC(C)(C)c1ccc(S(=O)(=O)c2cnc(SCC(=O)Nc3ccc(F)c(Cl)c3)[nH]c2=O)cc1
< 1 | Fc1ccc(Nc2nc(-n3ccnc3)nc3ccccc23)cc1F
< 1 | CC(C)(C)c1ccc(S(=O)(=O)N2CCC(c3ccncc3)CC2)cc1
< 1 | CCc1ccc(C(=O)Nc2cc(CN3CCN(C)CC3)cc(C(F)(F)F)c2)cc1C#Cc1cnc2ccnn2c1
2.72 (≈ 8.94 µM) | OCc1ccc(-c2nn(Cc3ccccc3)c3ccccc23)o1
